Experimental findings from ChEMBL document CHEMBL4477207, “Discovery of Novel 3-Quinoline Carboxamides as Potent, Selective, and Orally Bioavailable Inhibitors of Ataxia Telangiectasia Mutated (ATM) Kinase” (J Med Chem, 2016) are described below.

Series [1] addresses Serine-protein kinase ATM (Homo sapiens, UniProt Q13315). In words: Inhibition of ATM phosphorylation at Ser-1981 residue in human HT-29 cells incubated for 1 hr followed by X-ray irradiation by Hoechst staining based fluorescence plate reader analysis. The class given is cell-based.
Series [2] addresses Serine/threonine-protein kinase ATR (Homo sapiens, UniProt Q13535). In words: Inhibition of ATR in human HT-29 cells assessed as reduction in Chk1 phosphorylation at Ser-345 residue after 60 mins in presence of 4-nitroquinoline-1-oxide by Hoechst 33258 staining based plate reader analysis. The series is classed as cell-based.
The nature of series [3]: in vitro. As to conditions: human, hepatocytes.
Series [4] is described as follows: in vitro. As to conditions: rat, hepatocytes.
The next series is described as follows: physchem. As to conditions: octanol/buffer, pH 7.4.
The target in series [5] is Voltage-gated inwardly rectifying potassium channel KCNH2 (Homo sapiens, UniProt Q12809).
Sequence of Voltage-gated inwardly rectifying potassium channel KCNH2 (Q12809 whole entry): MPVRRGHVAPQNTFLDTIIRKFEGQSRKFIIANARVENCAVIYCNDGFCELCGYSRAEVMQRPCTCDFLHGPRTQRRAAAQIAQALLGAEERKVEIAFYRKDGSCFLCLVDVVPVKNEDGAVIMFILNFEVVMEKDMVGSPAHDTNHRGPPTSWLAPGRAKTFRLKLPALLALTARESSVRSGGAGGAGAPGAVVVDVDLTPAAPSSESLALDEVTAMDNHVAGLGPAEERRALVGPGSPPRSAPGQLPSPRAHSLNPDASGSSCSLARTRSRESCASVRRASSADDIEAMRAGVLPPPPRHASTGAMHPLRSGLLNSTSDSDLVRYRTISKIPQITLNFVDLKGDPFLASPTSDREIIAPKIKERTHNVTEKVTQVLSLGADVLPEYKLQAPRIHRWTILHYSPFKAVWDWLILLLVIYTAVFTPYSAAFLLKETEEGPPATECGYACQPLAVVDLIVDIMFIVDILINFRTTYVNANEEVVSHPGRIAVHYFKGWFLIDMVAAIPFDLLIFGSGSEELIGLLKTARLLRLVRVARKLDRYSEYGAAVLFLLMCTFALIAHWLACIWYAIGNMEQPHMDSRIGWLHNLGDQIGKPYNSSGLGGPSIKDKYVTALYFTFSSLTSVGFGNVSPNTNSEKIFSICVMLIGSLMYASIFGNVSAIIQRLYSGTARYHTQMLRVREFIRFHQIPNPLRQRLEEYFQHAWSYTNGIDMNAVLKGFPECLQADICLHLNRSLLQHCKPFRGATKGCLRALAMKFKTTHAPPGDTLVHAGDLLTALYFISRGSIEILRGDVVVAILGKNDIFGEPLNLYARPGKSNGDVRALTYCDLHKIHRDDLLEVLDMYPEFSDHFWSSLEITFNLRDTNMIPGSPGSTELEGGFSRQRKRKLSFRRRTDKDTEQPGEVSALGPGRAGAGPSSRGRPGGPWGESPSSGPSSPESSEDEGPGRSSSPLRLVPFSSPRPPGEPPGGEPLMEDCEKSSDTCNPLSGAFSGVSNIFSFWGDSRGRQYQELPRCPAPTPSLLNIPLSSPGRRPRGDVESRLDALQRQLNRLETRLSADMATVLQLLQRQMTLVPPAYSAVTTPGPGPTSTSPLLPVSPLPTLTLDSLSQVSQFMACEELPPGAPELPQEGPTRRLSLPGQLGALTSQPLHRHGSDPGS

pIC50: −log10 of the molar value. Some results are limits rather than exact numbers.
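Throughout, for logD: determined by the shake flask method.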

Sequence of Serine-protein kinase ATM (Q13315 whole entry): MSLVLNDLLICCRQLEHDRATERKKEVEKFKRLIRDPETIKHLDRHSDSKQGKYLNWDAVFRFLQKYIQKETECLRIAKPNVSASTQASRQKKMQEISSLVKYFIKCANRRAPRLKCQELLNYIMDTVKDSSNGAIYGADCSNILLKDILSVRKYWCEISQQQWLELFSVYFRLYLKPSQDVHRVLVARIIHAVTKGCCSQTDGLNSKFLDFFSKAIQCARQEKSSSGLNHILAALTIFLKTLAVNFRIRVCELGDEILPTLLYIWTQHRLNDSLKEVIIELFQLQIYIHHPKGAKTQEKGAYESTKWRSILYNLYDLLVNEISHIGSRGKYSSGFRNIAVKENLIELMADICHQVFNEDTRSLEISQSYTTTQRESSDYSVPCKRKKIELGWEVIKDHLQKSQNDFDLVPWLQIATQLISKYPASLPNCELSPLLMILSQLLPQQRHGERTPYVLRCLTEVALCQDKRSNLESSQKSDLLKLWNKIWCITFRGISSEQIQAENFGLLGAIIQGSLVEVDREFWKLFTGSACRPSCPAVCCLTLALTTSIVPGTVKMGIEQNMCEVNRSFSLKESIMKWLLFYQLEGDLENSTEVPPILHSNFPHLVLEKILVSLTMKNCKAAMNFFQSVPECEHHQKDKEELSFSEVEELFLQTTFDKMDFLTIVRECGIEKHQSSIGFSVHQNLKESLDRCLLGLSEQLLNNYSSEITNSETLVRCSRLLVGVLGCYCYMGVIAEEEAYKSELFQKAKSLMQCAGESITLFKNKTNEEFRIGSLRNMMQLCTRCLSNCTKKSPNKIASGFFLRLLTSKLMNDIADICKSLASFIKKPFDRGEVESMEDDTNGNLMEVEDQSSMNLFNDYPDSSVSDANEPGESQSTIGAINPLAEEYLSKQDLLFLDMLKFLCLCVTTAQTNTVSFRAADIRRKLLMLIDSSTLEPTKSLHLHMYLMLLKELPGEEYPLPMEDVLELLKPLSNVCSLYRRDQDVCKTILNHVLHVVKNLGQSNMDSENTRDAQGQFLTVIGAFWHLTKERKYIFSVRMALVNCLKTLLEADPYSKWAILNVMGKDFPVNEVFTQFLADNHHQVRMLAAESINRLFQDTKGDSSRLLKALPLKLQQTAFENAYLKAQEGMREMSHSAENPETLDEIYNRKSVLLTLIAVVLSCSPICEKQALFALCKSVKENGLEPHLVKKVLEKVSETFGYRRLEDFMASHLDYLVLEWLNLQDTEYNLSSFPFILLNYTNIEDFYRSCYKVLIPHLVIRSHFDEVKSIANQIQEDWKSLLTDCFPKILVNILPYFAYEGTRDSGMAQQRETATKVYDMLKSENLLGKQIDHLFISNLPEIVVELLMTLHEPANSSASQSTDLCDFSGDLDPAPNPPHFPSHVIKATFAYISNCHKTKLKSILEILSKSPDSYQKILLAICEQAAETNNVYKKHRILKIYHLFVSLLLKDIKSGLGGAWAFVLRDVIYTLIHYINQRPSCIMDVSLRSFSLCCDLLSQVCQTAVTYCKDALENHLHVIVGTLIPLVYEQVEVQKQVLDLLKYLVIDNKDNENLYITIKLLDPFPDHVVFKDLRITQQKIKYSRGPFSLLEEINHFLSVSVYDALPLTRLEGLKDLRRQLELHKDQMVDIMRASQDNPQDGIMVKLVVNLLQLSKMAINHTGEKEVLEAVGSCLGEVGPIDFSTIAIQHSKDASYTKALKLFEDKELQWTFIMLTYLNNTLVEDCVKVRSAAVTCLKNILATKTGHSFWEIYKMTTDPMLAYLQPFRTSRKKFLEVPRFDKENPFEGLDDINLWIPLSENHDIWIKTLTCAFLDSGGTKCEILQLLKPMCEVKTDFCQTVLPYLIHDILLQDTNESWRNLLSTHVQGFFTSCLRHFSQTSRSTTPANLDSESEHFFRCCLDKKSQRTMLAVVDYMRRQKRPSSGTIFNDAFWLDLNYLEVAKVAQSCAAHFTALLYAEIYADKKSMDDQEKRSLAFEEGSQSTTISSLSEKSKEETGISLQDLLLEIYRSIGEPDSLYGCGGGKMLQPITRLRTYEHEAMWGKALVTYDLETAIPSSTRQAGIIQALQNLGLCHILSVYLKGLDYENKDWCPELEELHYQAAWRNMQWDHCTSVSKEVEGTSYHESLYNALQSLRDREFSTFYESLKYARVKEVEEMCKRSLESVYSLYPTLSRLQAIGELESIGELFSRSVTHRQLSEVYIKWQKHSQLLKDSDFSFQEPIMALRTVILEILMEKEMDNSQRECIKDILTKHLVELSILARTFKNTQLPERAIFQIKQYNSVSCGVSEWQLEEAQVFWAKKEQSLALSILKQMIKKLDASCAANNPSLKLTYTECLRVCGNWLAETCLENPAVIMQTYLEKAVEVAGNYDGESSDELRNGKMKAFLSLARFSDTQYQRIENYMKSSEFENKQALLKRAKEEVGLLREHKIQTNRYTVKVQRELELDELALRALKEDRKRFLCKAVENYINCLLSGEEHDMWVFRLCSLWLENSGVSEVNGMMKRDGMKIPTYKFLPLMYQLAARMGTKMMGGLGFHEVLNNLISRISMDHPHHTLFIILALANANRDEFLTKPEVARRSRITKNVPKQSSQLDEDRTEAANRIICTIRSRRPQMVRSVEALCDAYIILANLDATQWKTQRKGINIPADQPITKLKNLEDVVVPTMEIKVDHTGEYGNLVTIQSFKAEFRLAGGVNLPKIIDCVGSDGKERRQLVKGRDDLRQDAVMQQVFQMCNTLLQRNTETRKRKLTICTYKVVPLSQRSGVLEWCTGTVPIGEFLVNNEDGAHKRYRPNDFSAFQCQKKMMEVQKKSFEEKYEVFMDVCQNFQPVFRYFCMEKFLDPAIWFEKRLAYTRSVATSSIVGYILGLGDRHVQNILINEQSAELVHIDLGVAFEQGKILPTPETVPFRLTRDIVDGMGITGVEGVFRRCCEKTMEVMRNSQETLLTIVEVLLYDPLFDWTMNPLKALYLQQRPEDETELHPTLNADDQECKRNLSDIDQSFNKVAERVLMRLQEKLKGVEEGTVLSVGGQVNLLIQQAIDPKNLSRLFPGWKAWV

A word on the pIC50: it is the negative decadic logarithm of the IC50, by convention in mol/L. A word on the hepatocyte CLint: it is the capacity of the preparation to metabolise the compound, expressed as a volume cleared per time. Higher therefore signals rapid turnover. The logD is the decadic logarithm of the distribution of all forms, ionised or not, between an organic phase and buffer at a given pH. A higher logD goes with a more lipophilic compound. For `COCc1ccc(-c2cc3c(N[C@@H](C)c4nn(C)cc4F)c(C(N)=O)cnc3cc2F)cn1`, the figures for the pIC50 in series [1] and in series [2] were 7.72 and less than 4.52, respectively. In addition, the hepatocyte CLint at 1.5 h in the series “in vitro [3]” was 5.5 µL/min/1e6 cells; in “in vitro [4]”, 4.8 µL/min/1e6 cells. Besides, in “physchem”, the logD amounted to 3.
As to `NC(=O)c1cnc2ccc(-c3cccnc3)cc2c1NCC1CCOCC1`, the pIC50 in series [1] is 5.49; in series [2] it was 4.96. The intrinsic metabolic clearance (hepatocyte CLint) at 1.5 h in the series “in vitro [3]” came out at 12 µL/min/1e6 cells; in “in vitro [4]” it was 19 µL/min/1e6 cells. Also, the logD in “physchem” worked out at 2.1.
Turning to `NC(=O)c1cnc2cc(Cl)c(-c3cccnc3)cc2c1NC1CCOCC1`, the values for the pIC50 in series [1], in series [2] and in series [5] were 5.49, less than 4.52 and 5.92, respectively. The hepatocyte CLint at 1.5 h is 4.3 µL/min/1e6 cells in the series “in vitro [3]” and 15 µL/min/1e6 cells in “in vitro [4]”. In the series “physchem”, the pH-dependent lipophilicity (logD) is 2.7.
In the case of `C[C@H](Nc1c(C(N)=O)cnc2ccc(-c3cccnc3)cc12)c1ccn(C)n1`, the pIC50 was 6.91 in series [1], 6.19 in series [2] and 4.96 in series [5]. In addition, the hepatocyte CLint at 1.5 h in the series “in vitro [3]” was 10 µL/min/1e6 cells; in “in vitro [4]” it was 31 µL/min/1e6 cells. The logD in “physchem” was 2.5.
On to `NC(=O)c1cnc2ccc(-c3cccnc3)c(F)c2c1NC1CCOCC1`, for which the pIC50 in series [1] was less than 4.52; in series [2] it was less than 4.52; in series [5], 4.89. In addition, the hepatocyte CLint at 1.5 h is less than 3 µL/min/1e6 cells in “in vitro [3]” and 11 µL/min/1e6 cells in “in vitro [4]”. In the series “physchem”, the logD turned out to be 1.5.
In the case of `CCC(CC)CNc1c(C(N)=O)c(C)nc2ccc(-c3cccnc3)cc12`, the pIC50 in series [1] is less than 4.52; in series [2], less than 4.52; in series [5] it was 6.17. The hepatocyte CLint at 1.5 h came to 6 µL/min/1e6 cells in “in vitro [3]” and 43 µL/min/1e6 cells in “in vitro [4]”. In the series “physchem”, this compound registered a logD of 2.7.
Take `CCC(CC)CNc1c(C(N)=O)cnc2ccc(-c3ccc(CS(C)(=O)=O)nc3)cc12`: the figures for the pIC50 in series [1], in series [2] and in series [5] were 7.41, less than 4.52 and 5.72, respectively. For the same compound, the hepatocyte CLint at 1.5 h in “in vitro [3]” was found to be 15 µL/min/1e6 cells; in “in vitro [4]”, 200 µL/min/1e6 cells. In “physchem”, this compound had a logD of 3.1.
`CCC(CC)CNc1c(C(N)=O)cnc2ccc(-c3ccc(CS(C)(=O)=O)cc3)cc12`: the results for the pIC50 in series [1], in series [2] and in series [5] were 7.15, less than 4.52 and 5.68, respectively. For the same compound, the hepatocyte CLint at 1.5 h in the series “in vitro [3]” is 23 µL/min/1e6 cells; in the series “in vitro [4]”, 210 µL/min/1e6 cells. The compound also had a logD in the series “physchem” of 3.5.
Turning to `C[C@@H](Nc1c(C(=O)O)cnc2ccc(-c3cccnc3)cc12)c1ccc(Cl)cc1`, the pIC50 in series [1] and in series [2] was less than 4.52 in each case.
Consider `COCc1ccc(-c2cc3c(N[C@@H](C)c4ccn(C)n4)c(C(N)=O)cnc3cc2F)c(F)n1`, for which the pIC50 in series [2] was less than 4.52.
With `NC(=O)c1cnc2ccc(-c3cccnc3)cc2c1SC1CCCC1`, the pIC50 in series [1] was 5.01; in series [2] it was less than 4.64; in series [5] it was 5.29. For the same compound, the hepatocyte CLint at 1.5 h in the series “in vitro [3]” was found to be 18 µL/min/1e6 cells; in “in vitro [4]”, 120 µL/min/1e6 cells. In “physchem”, the logD is 3.2.
Regarding `CCC(CC)CNc1c(C(N)=O)cnc2ccc(-c3cccnn3)cc12`, the values for the pIC50 in series [1] and in series [2] were 6.24 and less than 4.82, respectively.
For `C[C@H](Nc1c(C(N)=O)cnc2ccc(-c3cccnc3)cc12)C1CCOCC1`, the pIC50 in series [1] is 6.77; in series [2] it was less than 4.85; in series [5] it was 5.44. In addition, the hepatocyte CLint at 1.5 h in the series “in vitro [3]” amounted to 14 µL/min/1e6 cells; in the series “in vitro [4]”, 38 µL/min/1e6 cells. Moreover, the logD in “physchem” came out at 2.5.
As to `CCC(CC)CNc1c(C(N)=O)cnc2c(C)cc(-c3cccnc3)cc12`, the pIC50 in series [1] is 5.22; in series [2] it was less than 4.52.
Consider `NC(=O)c1cnc2c(F)cc(-c3cccnc3)cc2c1NC1CCOCC1`, for which the pIC50 in series [1] and in series [2] was less than 4.52 each time.
`NC(=O)c1cnc2cc(F)c(-c3cccnc3)cc2c1NC1CCOCC1`: the pIC50 is 6.22 in series [1] and less than 4.52 in series [2]. Further, the hepatocyte CLint at 1.5 h in “in vitro [3]” turned out to be 5.5 µL/min/1e6 cells; in “in vitro [4]”, 13 µL/min/1e6 cells. This compound also gave a logD in “physchem” of 2.1.
In the case of `C[C@@H](Nc1ccnc2ccc(-c3cccnc3)cc12)c1ccc(Cl)cc1`, the pIC50 in series [1] and in series [2] was less than 4.52 each time.
For the compound `CCC(CC)CNc1c(C(N)=O)cnc2ccc(-c3ccncc3)cc12`, the pIC50 is 6.38 in series [1] and 6.14 in series [2]. The hepatocyte CLint at 1.5 h was determined as 37 µL/min/1e6 cells in the series “in vitro [3]” and 76 µL/min/1e6 cells in “in vitro [4]”. This compound showed a logD in “physchem” of 3.3.
For `NC(=O)c1cnc2c(Cl)cc(-c3cccnc3)cc2c1NC1CCOCC1` the same measures were less than 4.52, less than 4.52, less than 1 µL/min/1e6 cells, 7.3 µL/min/1e6 cells and 2.1.
In the same order, the values of `COCc1ccc(-c2ccc3ncc(C(N)=O)c(N[C@@H](C)c4ccn(C)n4)c3c2)c(F)n1` are 7.20, less than 4.60, 5.7 µL/min/1e6 cells, 6.4 µL/min/1e6 cells and 2.6.
In the same order, the values of `NC(=O)c1cnc2ccc(-c3cccnc3)cc2c1NC1CCCCC1` are 6.88, 5.49, 34 µL/min/1e6 cells, 70 µL/min/1e6 cells and 3.8.
Take `COCc1ccc(-c2cc3c(N[C@@H](C)C4CCOCC4)c(C(N)=O)cnc3cc2F)cn1`: the pIC50 in series [1] is 7.28; in series [2] it was less than 4.52.
For `CCC(CC)CNc1c(C(N)=O)cnc2ccc(-c3cncnc3)cc12`, the pIC50 was 5.74 in series [1] and less than 4.74 in series [2]. The hepatocyte CLint at 1.5 h amounted to 46 µL/min/1e6 cells in “in vitro [3]” and 140 µL/min/1e6 cells in “in vitro [4]”. This compound displayed a logD in “physchem” of 3.3.
As to `CNC(=O)c1cnc2ccc(-c3cccnc3)cc2c1N[C@H](C)c1ccc(Cl)cc1`, the pIC50 in series [1] and in series [2] was less than 4.52 each time.
On to `CCC(CC)CNc1c(C(N)=O)cnc2ccc(-c3ccnnc3)cc12`, for which the pIC50 in series [1] is 6.04; in series [2], 5.59. Moreover, the hepatocyte CLint at 1.5 h in the series “in vitro [3]” came to 18 µL/min/1e6 cells; in “in vitro [4]”, 95 µL/min/1e6 cells. In “physchem”, this compound yielded a logD of 3.1.
As to `CCC(CC)CNc1c(C(N)=O)cnc2ccc(-c3cnn(C)c3)cc12`, the pIC50 in series [1] was 6.28; in series [2], 5.15.
Consider `CCC(CC)CNc1c(C(N)=O)cnc2ccc(-c3cccnc3)cc12`, for which the results for the pIC50 in series [1] and in series [2] were 7.14 and less than 4.96, respectively. Besides, the hepatocyte CLint at 1.5 h in “in vitro [3]” turned out to be 43 µL/min/1e6 cells; in the series “in vitro [4]”, 140 µL/min/1e6 cells. The same compound yielded a logD in “physchem” of 4.
As for `NC(=O)c1cnc2ccc(-c3cccnc3)cc2c1NC1CCOCC1`, the pIC50 in series [1] was 6.02; in series [2] it was 5.51. In addition, the hepatocyte CLint at 1.5 h in the series “in vitro [3]” is less than 4.2 µL/min/1e6 cells; in the series “in vitro [4]”, 8.5 µL/min/1e6 cells. For the same compound, in “physchem”, the logD stood at 1.9.
With `CCC(CC)CNc1c(C(N)=O)cnc2ccc(-c3ccc(C)nc3)cc12`, the pIC50 was 7.30 in series [1] and 5.26 in series [2]. Besides, the values for the hepatocyte CLint at 1.5 h in “in vitro [3]” and in the series “in vitro [4]” were 7.3 µL/min/1e6 cells and 150 µL/min/1e6 cells, respectively. Besides, the logD in the series “physchem” was greater than 4.3.
